Results published in paper PMC8465290, “Zoledronic Acid as a Novel Dual Blocker of KIR6.1/2-SUR2 Subunits of ATP-Sensitive K^+ Channels: Role in the Adverse Drug Reactions” (Pharmaceutics, 2021).
Values belong to the compound of their own block, whether it stands above or below them.

Experiments:
[1] = system: KATP channels of femora primary bone cells; assay: KATP currents in cell-attached patches of femora (long bone) primary bone cells; type: cell-based, mice; details: for IC50 / Imax % / Slope: Femora primary bone cells, cell-attached patches
Procedure: (§1) The culture of primary bone cells from adult mice was obtained from long bones (tibia and femur) and calvaria, as previously described. Bones were collected, cleaned, and flushed for removing the internal bone marrow cells. Small bone pieces of around 1 mm^3 were treated with trypsin-EDTA 0.25% (w/v) for 1 h and with 0.2% collagenase solution for an additional hour in a shaking water bath to remove all remaining soft tissue and adherent cells. Clean bone pieces have been cultured in basal medium enriched with 50 µg/mL of ascorbic acid. Osteoblasts from femora (Figure S1A, Supplementary Material) and calvaria chips (Figure S1B) were positive to Alizarin red staining (Figure S1C). The marker of osteoblasts was positive, as tested by the PCR expression analysis on cell pellets (Figure S1D).
(§2) The solutions for whole-cell and cell attached patches were as follows. The pipette solution contained 132 mM KCl, 1 mM ethylene glycol-bis(β-aminoethylether)-N,N,N′,N′-tetraaceticacid (EGTA), 10 mM NaCl, 2 mM MgCl2, 10 mM HEPES, 1 mM Na2ATP, and 0.3 mM Na2GDP (pH = 7.2). The bath solution contained 142 mM NaCl, 2.8 mM KCl, 1 mM CaCl2, 1 mM MgCl2, 11 mM glucose, and 10 mM HEPES (pH = 7.4).
(§3) The whole-cell and cell-attached patch-clamp experiments were performed in asymmetrical K^+ ion concentration in physiological conditions using pipettes with the resistance of 3–5 MΩ.
(§4) Drug actions on the channel currents recorded during instantaneous I/V relationships were investigated by applying a depolarization protocol, in response to voltage pulses from −180 mV to +100 mV (Vm) in 20 mV steps. Currents were expressed as densities (pA/pF) to control for cell size/capacitance differences. All experiments were performed at room temperature (20–22 °C) and sampled at 2 kHz (filter = 1 kHz) using an Axopatch-1D amplifier equipped with a CV-4 headstage (Axon Instruments; Foster City, CA, USA). Drug solutions were applied using a fast perfusion system during the continuous monitoring of the seal resistance at 18–22 °C room temperature in excised patches. In whole-cell and cell-attached patch-clamp experiments, before recording, the cells were equilibrated for 10 s with the solution. Data acquisition and analysis were performed using pCLAMP 10 software suite (Axon Instruments; Foster City, CA, USA), as previously described. Seal resistance was continuously monitored during the experiment.
The percentage of KATP current inhibition induced by ZOL was calculated as (I CTRL-I drug)/(I CTRL-I BaCl2) × −100. The concentration response data of ZOL against different KATP channel currents were fitted by an algorithm using the non-linear dynamic fitting routine of Sigma Plot, 10.0.

[2] = system: KATP channels of calvaria primary bone cells; assay: KATP currents in cell-attached patches of calvaria primary bone cells; type: cell-based, mice
Procedure: as §1, §2, §3
Drug actions on the channel currents recorded during instantaneous I/V relationships were investigated by applying a depolarization protocol, in response to voltage pulses from −180 mV to +100 mV (Vm) in 20 mV steps. Currents were expressed as densities (pA/pF) to control for cell size/capacitance differences. All experiments were performed at room temperature (20–22 °C) and sampled at 2 kHz (filter = 1 kHz) using an Axopatch-1D amplifier equipped with a CV-4 headstage (Axon Instruments; Foster City, CA, USA). […] Seal resistance was continuously monitored during the experiment.
(§5) The percentage of KATP current inhibition induced by ZOL was calculated as (I CTRL-I drug)/(I CTRL-I BaCl2) × −100. […]

[3] = molecular target: T1, KATP channels of Extensor digitorum longus (EDL) muscle fibers (Mus musculus, UniProt P70170+Q61743); assay: KATP currents in excised macro-patches from EDL muscle fibers (patch-clamp); type: cell-based, mice; details: excised macropatches
T1 construct: The KATP currents of native skeletal muscle fibers were recorded in excised macro patches; from tissue; host or cells: isolated Extensor digitorum longus muscle fibers of C57BL mice
Excerpt: (§6) In accordance with 3R RULE (DIRECTIVE 2010/63/EU) Replace, Reduce, Refine, bone and skeletal muscle were collected from wild-type male mice C57BL sacrificed for other scientific purposes (Ethic Committee name, Organization for Animal Health O.P.B.A. University of Bari, Italy, project: 7282018PR). The fibers were enzymatically isolated from Extensor digitorum longus (EDL) and Soleus (SOL) muscles, as previously described.
(§7) The solutions for excised patch experiments on isolated muscle fibers were as follows. The patch-pipette solution contained 150 mM KCl, 2 mM CaCl2, and 1 mM Mops (pH 7.2); the bath solution contained 150 mM KCl, 5 mM EGTA, and 10 mM Mops (pH 7.2).
(§8) The KATP currents of native skeletal muscle fibers were recorded in excised macro patches using pipettes of 0.9–1.2 MΩ of resistance on isolated skeletal muscle fibers in symmetrical 150 mM K^+ ions concentrations on both sides of the membrane during pulse going from 0 mV to −60 mV (Vm), as previously described.
as §4, with “Data acquisition and analysis were performed using pCLAMP 10 software suite (Axon Instruments; Foster City, CA, USA), as previously described.” left out
as §5

[4] = system: KATP channels of Soleus (SOL) muscle fibers; assay: KATP currents in excised macro-patches from SOL muscle fibers (patch-clamp); type: cell-based, mice; details: excised macropatches
Excerpt: as §6, §7, §8
as §4, with “Data acquisition and analysis were performed using pCLAMP 10 software suite (Axon Instruments; Foster City, CA, USA), as previously described.” left out
as §5

KIR6.2-SUR2A = molecular target: T2, KIR6.2-SUR2A (Homo sapiens, UniProt O60706+Q14654); assay: Whole-cell current of recombinant KIR6.2-SUR2A in Hek293 cells; type: cell-based
T2 construct: expressed in transfected cells; host or cells: Hek293
Procedure: (§9) For experiments on recombinant channel subunits, Hek293 cells were transfected with the relevant plasmids, as previously described.
as §2
(§10) CaCl2 was added to the pipette solutions to give a free Ca^2+ ion concentration of 1.6 × 10^−6 M in whole-cell experiments. The calculation of the free Ca^2+ ion concentration in the pipette was performed using the MaxChelator software (Stanford University; Stanford, CA, USA).
as §3
as §4, with “Data acquisition and analysis were performed using pCLAMP 10 software suite (Axon Instruments; Foster City, CA, USA), as previously described.” left out
as §5

KIR6.1-SUR2B = molecular target: T3, KIR6.1-SUR2B (Homo sapiens, UniProt O60706+Q15842); assay: Whole-cell current of recombinant KIR6.1-SUR2B in Hek293 cells; type: cell-based
T3 construct: expressed in transfected cells; host or cells: Hek293
Procedure: as §9, §2, §10, §3
as §4, with “Data acquisition and analysis were performed using pCLAMP 10 software suite (Axon Instruments; Foster City, CA, USA), as previously described.” left out
as §5

KIR6.1-SUR1 = molecular target: T4, KIR6.1-SUR1 (Homo sapiens, UniProt Q09428+Q15842); assay: Whole-cell current of recombinant KIR6.1-SUR1 in Hek293 cells; type: cell-based; details: Hek293 cells KIR6.1-SUR1, whole-cell, −60 mV
T4 construct: expressed in transfected cells; host or cells: Hek293
Procedure: as §9, §2
CaCl2 was added to the pipette solutions to give a free Ca^2+ ion concentration of 1.6 × 10^−6 M in whole-cell experiments. The calculation of the free Ca^2+ ion concentration in the pipette was performed using the MaxChelator software (Stanford University; Stanford, CA, USA). […]
Drug actions on the channel currents recorded during instantaneous I/V relationships were investigated by applying a depolarization protocol, in response to voltage pulses from −180 mV to +100 mV (Vm) in 20 mV steps. Currents were expressed as densities (pA/pF) to control for cell size/capacitance differences. […] Seal resistance was continuously monitored during the experiment.
as §5

KIR6.2-SUR1 = molecular target: T5, KIR6.2-SUR1 (Homo sapiens, UniProt Q09428+Q14654); assay: Whole-cell current of recombinant KIR6.2-SUR1 in Hek293 cells; type: cell-based; details: Hek293 cells KIR6.2-SUR1, whole-cell
T5 construct: expressed in transfected cells; host or cells: Hek293
Procedure: as §9, §2, §10, §3
as §4, with “Data acquisition and analysis were performed using pCLAMP 10 software suite (Axon Instruments; Foster City, CA, USA), as previously described.” left out
as §5

[5] = Pharmacovigilance analysis of A.D.R. in EudraVigilance database; set-up: species or system human
Excerpt: All coding preferred terms per System Organ Class (S.O.C.) were screened in the EudraVigilance database (http://www.adrreports.eu/ accessed on 1 May 2021), and those potentially associated with KATP channel blocking actions were reported and subject to analysis.
The data were extracted from EudraVigilance, collected, and analyzed on Microsoft 365 Excel software package (Microsoft 10.00). The not specified category was not included in the calculation. The duplication of a specific report per S.O.C. was evaluated manually and excluded from the analysis.
The Proportional Reporting Ratio (P.R.R.) was calculated using the following equation: a/(a+c)/b/(b + d) where a is the reaction of interest to a given drug of interest, b is the reaction of interest for all other drugs in the class, c are all other reactions to a given drug of interest, and d are all other reactions to all other drugs in the class. Signal definition: P.R.R. ≥ 2, a minimum of three ratios/cases for the reaction of interest, X^2 ≥ 4. No signal is identified if P.R.R. is = 1 [47].

[6] = set-up: method as in EudraVigilance database; details: cited from earlier work
[7] = set-up: method as in PMID 24330023; details: multiple myeloma patients ref 9; cited from earlier work
[8] = musculoskeletal and connective tissues disorders S.O.C.
[9] = within the KATP channel blockers
[10] = all ages ref EudraVigilance database

T1 sequence (Q61743 whole entry): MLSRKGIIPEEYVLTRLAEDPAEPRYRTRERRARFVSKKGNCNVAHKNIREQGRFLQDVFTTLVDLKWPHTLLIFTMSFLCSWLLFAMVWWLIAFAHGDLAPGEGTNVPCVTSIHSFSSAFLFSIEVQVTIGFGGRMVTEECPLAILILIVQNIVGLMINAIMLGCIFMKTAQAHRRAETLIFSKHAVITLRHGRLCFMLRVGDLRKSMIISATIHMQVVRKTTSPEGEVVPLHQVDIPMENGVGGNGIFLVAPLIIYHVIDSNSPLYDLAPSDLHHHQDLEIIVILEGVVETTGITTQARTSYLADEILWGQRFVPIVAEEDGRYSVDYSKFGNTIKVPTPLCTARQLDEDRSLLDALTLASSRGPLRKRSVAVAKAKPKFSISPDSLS
T1 sequence (P70170 whole entry): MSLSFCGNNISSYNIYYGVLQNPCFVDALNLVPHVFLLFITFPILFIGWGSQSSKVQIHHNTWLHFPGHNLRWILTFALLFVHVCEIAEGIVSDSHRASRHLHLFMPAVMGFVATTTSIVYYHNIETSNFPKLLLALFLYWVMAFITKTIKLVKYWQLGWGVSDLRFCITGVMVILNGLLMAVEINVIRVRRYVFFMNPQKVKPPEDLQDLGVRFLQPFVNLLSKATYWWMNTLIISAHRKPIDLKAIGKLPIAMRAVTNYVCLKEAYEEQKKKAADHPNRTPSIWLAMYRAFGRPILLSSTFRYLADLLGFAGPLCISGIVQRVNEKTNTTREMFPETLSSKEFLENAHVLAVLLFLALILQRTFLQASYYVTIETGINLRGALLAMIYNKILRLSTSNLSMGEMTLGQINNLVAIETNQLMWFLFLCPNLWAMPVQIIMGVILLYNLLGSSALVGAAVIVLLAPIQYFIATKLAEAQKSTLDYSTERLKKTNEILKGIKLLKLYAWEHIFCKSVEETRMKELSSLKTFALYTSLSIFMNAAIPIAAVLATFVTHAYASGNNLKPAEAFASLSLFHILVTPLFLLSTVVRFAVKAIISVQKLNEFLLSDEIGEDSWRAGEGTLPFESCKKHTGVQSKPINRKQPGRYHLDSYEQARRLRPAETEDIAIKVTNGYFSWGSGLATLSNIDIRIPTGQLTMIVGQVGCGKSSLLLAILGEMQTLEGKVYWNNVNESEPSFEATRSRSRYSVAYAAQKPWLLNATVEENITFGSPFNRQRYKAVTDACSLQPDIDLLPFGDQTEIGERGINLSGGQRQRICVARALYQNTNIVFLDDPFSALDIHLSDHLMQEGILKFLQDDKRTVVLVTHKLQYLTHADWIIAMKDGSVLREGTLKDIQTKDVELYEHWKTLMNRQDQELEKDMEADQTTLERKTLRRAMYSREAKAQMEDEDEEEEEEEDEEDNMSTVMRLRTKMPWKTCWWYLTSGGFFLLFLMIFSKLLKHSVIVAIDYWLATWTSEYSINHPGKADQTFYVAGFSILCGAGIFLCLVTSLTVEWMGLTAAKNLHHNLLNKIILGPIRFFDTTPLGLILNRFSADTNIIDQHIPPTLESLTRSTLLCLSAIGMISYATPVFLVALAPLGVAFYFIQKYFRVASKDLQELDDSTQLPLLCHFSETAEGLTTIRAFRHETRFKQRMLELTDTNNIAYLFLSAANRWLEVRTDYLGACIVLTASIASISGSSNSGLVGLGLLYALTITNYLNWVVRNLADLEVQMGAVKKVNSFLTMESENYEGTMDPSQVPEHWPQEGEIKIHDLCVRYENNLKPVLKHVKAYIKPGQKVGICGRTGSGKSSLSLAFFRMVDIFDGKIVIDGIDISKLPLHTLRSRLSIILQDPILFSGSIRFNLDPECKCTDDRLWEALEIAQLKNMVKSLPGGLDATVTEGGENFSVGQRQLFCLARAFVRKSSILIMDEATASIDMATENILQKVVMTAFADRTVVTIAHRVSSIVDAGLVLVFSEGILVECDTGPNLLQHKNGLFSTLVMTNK
T2 sequence (Q14654 whole entry): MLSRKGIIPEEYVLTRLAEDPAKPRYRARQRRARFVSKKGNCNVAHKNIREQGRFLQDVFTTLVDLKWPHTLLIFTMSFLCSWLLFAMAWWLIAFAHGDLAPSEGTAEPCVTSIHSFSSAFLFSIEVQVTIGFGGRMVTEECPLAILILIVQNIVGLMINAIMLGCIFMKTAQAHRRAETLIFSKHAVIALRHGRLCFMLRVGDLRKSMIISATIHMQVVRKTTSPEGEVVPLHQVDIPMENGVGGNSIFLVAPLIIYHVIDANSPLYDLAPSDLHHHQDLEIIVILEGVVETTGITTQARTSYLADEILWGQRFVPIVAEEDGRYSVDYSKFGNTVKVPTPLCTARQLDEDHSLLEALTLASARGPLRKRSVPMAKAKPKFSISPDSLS
T2 sequence (O60706 whole entry): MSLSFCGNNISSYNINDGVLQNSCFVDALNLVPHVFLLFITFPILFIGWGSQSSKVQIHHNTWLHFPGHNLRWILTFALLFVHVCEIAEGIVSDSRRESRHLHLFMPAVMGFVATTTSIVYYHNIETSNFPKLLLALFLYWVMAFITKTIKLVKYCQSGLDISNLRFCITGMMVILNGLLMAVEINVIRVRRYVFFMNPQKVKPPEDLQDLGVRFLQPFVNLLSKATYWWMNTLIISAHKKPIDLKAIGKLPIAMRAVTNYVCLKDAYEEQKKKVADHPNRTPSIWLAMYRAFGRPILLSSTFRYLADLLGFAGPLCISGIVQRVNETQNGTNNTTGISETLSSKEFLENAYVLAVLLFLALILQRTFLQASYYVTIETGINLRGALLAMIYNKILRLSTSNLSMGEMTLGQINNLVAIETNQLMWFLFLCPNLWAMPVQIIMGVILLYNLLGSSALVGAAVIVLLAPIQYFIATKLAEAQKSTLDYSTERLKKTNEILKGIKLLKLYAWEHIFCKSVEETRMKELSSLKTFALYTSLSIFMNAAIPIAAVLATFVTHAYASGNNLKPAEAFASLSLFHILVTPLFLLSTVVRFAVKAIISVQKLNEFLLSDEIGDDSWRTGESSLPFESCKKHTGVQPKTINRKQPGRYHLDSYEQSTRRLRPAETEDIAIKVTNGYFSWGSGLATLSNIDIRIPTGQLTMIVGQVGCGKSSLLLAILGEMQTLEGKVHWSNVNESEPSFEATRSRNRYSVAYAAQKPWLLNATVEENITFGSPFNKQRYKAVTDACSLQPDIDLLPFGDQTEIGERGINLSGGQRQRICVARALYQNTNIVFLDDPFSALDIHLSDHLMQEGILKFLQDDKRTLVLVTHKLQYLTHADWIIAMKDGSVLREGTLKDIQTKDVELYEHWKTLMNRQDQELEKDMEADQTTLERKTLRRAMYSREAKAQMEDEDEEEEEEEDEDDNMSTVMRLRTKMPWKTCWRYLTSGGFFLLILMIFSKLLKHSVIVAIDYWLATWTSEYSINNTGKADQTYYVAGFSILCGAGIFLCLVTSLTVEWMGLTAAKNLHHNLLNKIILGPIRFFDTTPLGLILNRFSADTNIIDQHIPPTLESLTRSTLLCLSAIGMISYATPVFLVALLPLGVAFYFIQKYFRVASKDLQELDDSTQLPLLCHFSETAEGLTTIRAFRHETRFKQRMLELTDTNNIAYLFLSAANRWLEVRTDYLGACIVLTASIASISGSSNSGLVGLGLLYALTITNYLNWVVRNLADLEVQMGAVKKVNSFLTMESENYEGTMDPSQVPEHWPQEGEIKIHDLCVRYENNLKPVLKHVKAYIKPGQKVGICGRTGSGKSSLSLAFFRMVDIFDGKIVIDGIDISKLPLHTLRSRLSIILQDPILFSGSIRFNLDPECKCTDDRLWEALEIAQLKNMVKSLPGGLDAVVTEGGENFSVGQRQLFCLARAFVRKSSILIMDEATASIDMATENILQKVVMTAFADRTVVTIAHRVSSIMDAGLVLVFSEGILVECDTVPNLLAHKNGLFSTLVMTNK

IC50 [1]: 5.07 nM
IC50 [2]: 10.2 nM
SMILES: COc1ccc(Cl)cc1C(=O)NCCc1ccc(S(=O)(=O)NC(=O)NC2CCCCC2)cc1 [Glibenclamide, 5-chloro-N-(2-{4-[(cyclohexylcarbamoyl)sulfamoyl]phenyl}ethyl)-2-methoxybenzamide]
inhibition of KATP currents in C-A patches (in words) ([1]; C-A patches, nanomolar concentrations, Figure 1C): markedly reduced
Imax % [1]: −88.32 ± 21 n = 13 cells %
Slope [1]: 0.4 ± 0.08
Imax % [2]: −93 ± 14 n = 18 cells %
Slope [2]: 0.5 ± 0.03

SMILES: O=P(O)(O)C(O)(Cn1ccnc1)P(=O)(O)O [Zoledronic acid]
IC50 [3]: 1200 nM
Slope ([3]; concentration-response fit): 0.38 ± 0.07
Imax % ([3]; −60 mV, symmetrical 150 mM K+): −100.1 ± 9.3 n = 17 fibers %
IC50 [4]: 0.21 nM
Slope ([4]; concentration-response fit): 0.29 ± 0.05
Imax % ([4]; −60 mV, symmetrical 150 mM K+): −99.4 ± 5 n = 21 fibers %
IC50 [1]: 0.16 nM
Imax % [1]: −104.8 ± 8.7 n = 21 cells %
Slope [1]: 0.31 ± 0.07
IC50 (KIR6.2-SUR2A): 7100 nM
Slope (KIR6.2-SUR2A): * 0.12 ± 0.7
Imax % (KIR6.2-SUR2A; −60 mV): −83.7 ± 1.2 n = 15 cells %
IC50 (KIR6.1-SUR2B): 0.39 nM
Slope (KIR6.1-SUR2B): 0.59 ± 0.04
Imax % (KIR6.1-SUR2B; −60 mV): −94 ± 4.8 n = 15 cells %
Imax % (KIR6.1-SUR1): * −40 ± 8.8 n = 3 cells %
IC50 (KIR6.2-SUR1): 21000 nM
Slope (KIR6.2-SUR1): * 0.18 ± 0.09
Imax % (KIR6.2-SUR1; −60 mV): * −60.13 ± 4.1 n = 15 cells %
hypoglycemia, % of the A.D.R. per S.O.C. [5]: 1.63%
arrhythmia, % of cardiac A.D.R. ([5]; cardiac A.D.R.): 8.1%
atrial fibrillation, % of cardiac A.D.R. ([5]; cardiac A.D.R.): 17.9%
congestive heart failure, % of cardiac A.D.R. ([5]; cardiac A.D.R.): 12.6%
myocardial infarction, % of cardiac A.D.R. ([5]; cardiac A.D.R.): 12%
palpitations, % of cardiac A.D.R. ([5]; cardiac A.D.R.): 13.2%
sinus tachycardia, % of cardiac A.D.R. ([5]; cardiac A.D.R.): 5.3%
tachycardia, % of cardiac A.D.R. ([5]; cardiac A.D.R.): 12.2%
arthralgia, % of the A.D.R. [5, 8]: 16%
muscular weakness, % of the A.D.R. per S.O.C. [5, 8]: 2.7%
myalgia, % of the A.D.R. [5, 8]: 10%
osteonecrosis of the jaw, % of the total A.D.R. [5, 8]: 47.9%
blood pressure increase, % of A.D.R. ([5]; vascular S.O.C.): 16%
hypertension, % of A.D.R. ([5]; vascular S.O.C.): 25%
hypotension, % of A.D.R. ([5]; vascular S.O.C.): 18%
Proportional Reporting Ratio (P.R.R.) arrhythmias [5, 9]: ≥ 2
Proportional Reporting Ratio (P.R.R.) atrial fibrillation [5, 9]: ≥ 2
Proportional Reporting Ratio (P.R.R.) diarrhea [5, 9]: ≥ 2
Proportional Reporting Ratio (P.R.R.) hypertension [5, 9]: ≥ 2
Proportional Reporting Ratio (P.R.R.) hypoglycemia [5, 9]: lower risk
Proportional Reporting Ratio (P.R.R.) muscular weakness [5, 9]: ≥ 2
Proportional Reporting Ratio (P.R.R.) myalgia [5, 9]: ≥ 2
Proportional Reporting Ratio (P.R.R.) osteonecrosis of jaw [5, 9]: ≥ 2
Proportional Reporting Ratio (P.R.R.) rhabdomyolysis [5, 9]: lower risk
osteonecrosis of the jaw, affected females [6, 10]: 4792
osteonecrosis of the jaw, affected males [6, 10]: 3184
adverse reaction cases reported ([6]; all indications, up to 1 May 2021 ref EudraVigilance database): 35,201 cases
arrhythmia, number of reports ([6]; cardiac A.D.R. ref EudraVigilance database): 197
median overall survival [7]: 52 months

Proportional Reporting Ratio (P.R.R.) muscular weakness [5, 9]: ≥ 2
SMILES: Cc1ccc(S(=O)(=O)NC(=O)NN2CC3CCCC3C2)cc1 (centres unmarked) [gliclazide]
